The target in assay [1] is T1, human CRTH2 (Homo sapiens, UniProt Q9Y5Y4).
T1 construct: expressed in transfected cells
T1 sequence (Q9Y5Y4 1-395): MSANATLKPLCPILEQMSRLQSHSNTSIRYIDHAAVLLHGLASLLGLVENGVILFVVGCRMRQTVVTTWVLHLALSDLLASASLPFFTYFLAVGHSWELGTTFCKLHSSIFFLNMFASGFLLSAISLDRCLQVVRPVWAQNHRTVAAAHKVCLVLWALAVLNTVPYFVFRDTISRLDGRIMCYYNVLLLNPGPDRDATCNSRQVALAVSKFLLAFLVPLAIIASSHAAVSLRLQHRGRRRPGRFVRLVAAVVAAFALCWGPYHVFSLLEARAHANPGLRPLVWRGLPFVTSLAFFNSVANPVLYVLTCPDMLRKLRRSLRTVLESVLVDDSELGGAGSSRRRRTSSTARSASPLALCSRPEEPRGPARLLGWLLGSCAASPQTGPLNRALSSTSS
Kind of assay: Measurement of Ca2+ mobilization in the human CRTH2-transfected L1.2 cell line (Assay 1). The assay is classed as cell-based. To be noted: PGD2-induced Ca2+ mobilization, CRTH2-transfected L1.2 cells, compounds at purity of about 40 to 90%. As for the experimental part:
(§1) Human CRTH2 cDNA was amplified from human eosinophil cDNA with gene specific primers containing restriction sites for cloning into pEAK vector (Edge Bio Systems). The human CRTH2 cDNA was cloned into the mammalian expression vector pEAK. This expression plasmid (40 μg) was transfected into L1.2 cells, at a cell density of 1×10^7 cells/500 μl, by using electroporation apparatus (Gene Pulser II, BioRad) at 250V/1,000 μF. One day after the transfection, puromycin (1 μg/ml, Sigma) was added into the cell culture plates. Two weeks after the transfection, grown cells were picked up for further growth.
Ca^2+ loading buffer was prepared by mixing 5 μl of Fluo-3AM (2 mM in DMSO, final 1 μM, Molecular Probes) and 10 μl of pluronic F-127 (Molecular Probes) and diluting the resulting mixture in 10 ml of Ca^2+ assay buffer (20 mM HEPES pH 7.6, 0.1% BSA, 1 mM probenecid, Hanks' solution). The CRTH2 transfected cells which were prepared in Example 1 were washed with PBS, resuspended in Ca^2+ loading buffer at 1×10^7 cells/ml, and incubated for 60 min at room temperature. After incubation, cells were washed and resuspended in Ca^2+ assay buffer, then dispensed into transparent-bottom 96-well plates (#3631, Costar) at 2×10^5 cells/well. Cells were incubated with various concentrations of test compound for 5 minutes at room temperature. The emitted 480 nm fluorescence was measured on FDSS6000, a Ca^2+-measurement apparatus (Hamamatsu Photonics, Hamamatsu, Japan).
Assay results in Assay 1 are shown in Examples and tables of the Examples below. The data corresponds to the compounds as yielded by solid phase synthesis and thus to levels of purity of about 40 to 90%. For practical reasons, the compounds are grouped in four classes of activity as follows: IC50=A(< or =)10 nM<B(< or =)100 nM<C(< or =)500 nM<D

The target of assay [2] is T1, human CRTH2. Kind of assay: Human CRTH2 receptor binding assay (Assay 2). Particulars: binding to puromycin-resistant CRTH2 L1.2 transfectants. The method, then:
as §1
CRTH2 transfectants were washed once with PBS and resuspended in binding buffer (50 mM Tris-HCl, pH7.4, 40 mM MgCl2, 0.1% BSA, 0.1% NaN3). 100 μl of cell suspension (2×10^5 cells), [^3H]-labeled PGD2, and various concentrations of test compound were then mixed in a 96-well U-bottom polypropylene plate and incubated for 60 min at room temperature to allow binding to occur. After incubation, the cell suspension was transferred to a filtration plate (#MAFB, Millipore) and washed 3 times with binding buffer. Scintillant was added to the filtration plate, and radioactivity remaining on the filter was measured by TopCount (Packard), a scintillation counter. Non-specific binding was determined by incubating the cell suspension and [^3H]-labeled PGD2 in the presence of 1 μM of unlabeled PGD2.

[3] abbreviates: read-out: In vitro activity grade.

Read-outs that look alike come from different tables or passages of the source.

For orientation: Kd means the free concentration of one partner at which half of the binding sites on the other are occupied at equilibrium, for simple one-to-one binding. Read a high Kd as weaker binding.

For `O=C(O)Cc1c(Cl)nc(Cc2ccc(NC(=O)c3ccc(C(F)(F)F)cc3)cc2)n2ccnc12` [Example 1-1, [7-Chloro-5-(4-{[4-(trifluoromethyl)benzoyl]amino}benzyl)imidazo[1,2-c]pyrimidin-8-yl]acetic acid], the IC50 in assay [1] (setting [3]) lay within 0.01 to 0.1 µM.

With `O=C(O)Cc1c(Cl)nc(Cc2ccc(NC(=O)c3ccc(Cl)c(Cl)c3)cc2)n2ccnc12` [Example 1-2, (7-chloro-5-{4-[(3,4-dichlorobenzoyl)amino]benzyl}imidazo[1,2-c]pyrimidin-8-yl)acetic acid], the IC50 in assay [1] (read-out: Activity class) was less than 0.01 µM.

Regarding `O=C(O)Cc1c(Cl)nc(Cc2ccc(NC(=O)c3ccc4ccccc4c3)cc2)n2ccnc12` [Example 1-3, {7-chloro-5-[4-(2-naphthoylamino)benzyl]imidazo[1,2-c]pyrimidin-8-yl}acetic acid], the IC50 in assay [1] (read-out: Activity class) fell in the range of 0.01 to 0.1 µM.

For the compound `O=C(O)Cc1c(Cl)nc(Cc2ccc(NC(=O)/C=C/c3ccccc3)cc2)n2ccnc12` [Example 1-4], in assay [1] (read-out: Activity class), the IC50 is less than 0.01 µM.

Regarding `O=C(O)Cc1c(Cl)nc(Cc2ccc(NC(=O)/C=C/c3ccc(Cl)cc3)cc2)n2ccnc12` [Example 1-5, [7-chloro-5-(4-{[(2E)-3-(4-chlorophenyl)prop-2-enoyl]amino}benzyl)imidazo[1,2-c]pyrimidin-8-yl]acetic acid], the IC50 in assay [1] (read-out: Activity class) was 0.01 to 0.1 µM.

Turning to `O=C(O)Cc1cnc(Cc2ccc(NC(=O)c3ccc(C(F)(F)F)cc3)cc2)n2ccnc12` [Example 2-1, [5-(4-{[4-(trifluoromethyl)benzoyl]amino}benzyl)imidazo[1,2-c]pyrimidin-8-yl]acetic acid], in assay [1] (setting [3]), the IC50 was 0.01 to 0.1 µM.

For the compound `O=C(O)Cc1cnc(Cc2ccc(NC(=O)c3ccc(Cl)c(Cl)c3)cc2)n2ccnc12` [Example 2-2, (5-{4-[(3,4-Dichlorobenzoyl)amino]benzyl}imidazo[1,2-c]pyrimidin-8-yl)acetic acid], the IC50 in assay [1] (setting [3]) is 0.1 to 0.5 µM.

Compound `CCCCC[C@H](O)/C=C/[C@H]1C(=O)C[C@H](O)[C@@H]1C/C=C\CCCC(=O)O` [[^3H]-labeled PGD2] displayed a Kd in assay [2] of 0.0063 µM.

These data come from patent US7750014B2, “Imidazo[1,2-C]pyrimidinylacetic acid derivatives” (Actimis Pharmaceuticals, Inc., priority 2004, dated 2010).
